The results in this text go back to patent US11926613B2, “Kinase inhibitors for the treatment of central and peripheral nervous system disorders” (UNIVERSITY OF MIAMI, priority 2017, dated 2024).

The test system of one assay is Primary Neurons. The experiment in a line: HCS neurite outgrowth assay (High Content Screening with Primary Neurons). In kind it is cell-based.
Details: not given
By EC50 is commonly meant the concentration at which the effect is half-maximal. “2-(4-(((3R,4R)-4-(isonicotinamido)pyrrolidin-3- yl)carbamoyl)benzoyl)-4-methoxyphenyl benzoate [Example A87]” came in with an EC50 of 13.1 µM. In the case of “2-(4-(((3R,4R)-4-(isonicotinamido)pyrrolidin-3- yl)carbamoyl)benzoyl)-4-methoxyphenyl acetate [Example A89]”, the response was half-maximal at 8.08 µM (EC50).

The same assay, now with this note: Primary neuron.
Compound `O=C(N[C@@H]1CNC[C@H]1NC(=O)c1ccc(C(=O)c2cc(OCc3ccccc3)ccc2O)cc1)c1ccncc1` [Example A97, N-((3R,4R)-4-(4-(5-(benzyloxy)-2-hydroxybenzoyl)benzamido)pyrrolidin-3-yl)isonicotinamide] registered an EC50 of 11.3 µM. Still for that read-out and setting: then `CCc1ccc(O)c(C(=O)c2ccc(C(=O)N[C@@H]3CNC[C@H]3NC(=O)c3ccncc3)cc2)c1` [Example A95, N-((3R,4R)-4-(4-(5-ethyl-2-hydroxybenzoyl)benzamido)pyrrolidin-3-yl)isonicotinamide], with 9.77 µM. Take `COc1ccc(O)c(C(=O)c2ccc(C(=O)N[C@@H]3CCCNC[C@H]3NC(=O)c3ccncc3)cc2)c1F` [Example A94, N-((3R,4R)-4-(4-(2-fluoro-6-hydroxy-3-methoxybenzoyl)benzamido)azepan-3-yl)isonicotinamide]: the response was half-maximal at 0.813 µM (EC50). `CCOc1ccc(O)c(C(=O)c2ccc(C(=O)N[C@@H]3CNC[C@H]3NC(=O)c3ccncc3)cc2)c1` [Example A90, N-((3R,4R)-4-(4-(5-ethoxy-2-hydroxybenzoyl)benzamido)pyrrolidin-3-yl)isonicotinamide] had an EC50 of 1.79 µM.

Regarding `O=C(N[C@@H]1CNC[C@H]1NC(=O)c1ccc(C(=O)c2cc(-c3ccccc3)ccc2O)cc1)c1ccncc1` [Example A93, N-((3R,4R)-4-(4-(4-hydroxy-[1,1′-biphenyl]-3-carbonyl)benzamido)pyrrolidin-3-yl)isonicotinamide], the EC50 turned out to be 13.3 µM. The same measure, in the same setting: in the case of `O=C(N[C@@H]1CNC[C@H]1NC(=O)c1ccc(C(=O)c2cc(F)ccc2O)cc1)c1ccncc1` [Example A91, N-((3R,4R)-4-(4-(5-fluoro-2-hydroxybenzoyl)benzamido)pyrrolidin-3-yl)isonicotinamide] it was 3.41 µM; in that of `CC(C)(C)Oc1ccc(O)c(C(=O)c2ccc(C(=O)N[C@@H]3CNC[C@H]3NC(=O)c3ccncc3)cc2)c1` [Example A98, N-((3R,4R)-4-(4-(5-(tert-butoxy)-2-hydroxybenzoyl)benzamido)pyrrolidin-3-yl)isonicotinamide], 9.97 µM; in that of `O=C(N[C@@H]1CNC[C@H]1NC(=O)c1ccc(C(=O)c2cc(OC(F)(F)F)ccc2O)cc1)c1ccncc1` [Example A96, N-((3R,4R)-4-(4-(2-hydroxy-5-(trifluoromethoxy)benzoyl)benzamido)pyrrolidin-3-yl)isonicotinamide], 1.45 µM. `O=C(N[C@@H]1CNC[C@H]1NC(=O)c1ccc(C(=O)c2cc(C(F)(F)F)ccc2O)cc1)c1ccncc1` [Example A99, N-((3R,4R)-4-(4-(2-hydroxy-5-(trifluoromethyl)benzoyl)benzamido)pyrrolidin-3-yl)isonicotinamide] showed an EC50 of 2.36 µM.
